Experimental data published in patent US8703770B2, “Pyridazine carboxamide orexin receptor antagonists” (Merck Sharp & Dohme Corp., priority 2008, dated 2014).

Target: OX2R (Homo sapiens (Human), UniProt O43614)
Assay: radioligand binding assay, membranes from CHO cells expressing OX2 receptor
Conditions: CHO cell membranes

Chain of OX2R (O43614 whole entry): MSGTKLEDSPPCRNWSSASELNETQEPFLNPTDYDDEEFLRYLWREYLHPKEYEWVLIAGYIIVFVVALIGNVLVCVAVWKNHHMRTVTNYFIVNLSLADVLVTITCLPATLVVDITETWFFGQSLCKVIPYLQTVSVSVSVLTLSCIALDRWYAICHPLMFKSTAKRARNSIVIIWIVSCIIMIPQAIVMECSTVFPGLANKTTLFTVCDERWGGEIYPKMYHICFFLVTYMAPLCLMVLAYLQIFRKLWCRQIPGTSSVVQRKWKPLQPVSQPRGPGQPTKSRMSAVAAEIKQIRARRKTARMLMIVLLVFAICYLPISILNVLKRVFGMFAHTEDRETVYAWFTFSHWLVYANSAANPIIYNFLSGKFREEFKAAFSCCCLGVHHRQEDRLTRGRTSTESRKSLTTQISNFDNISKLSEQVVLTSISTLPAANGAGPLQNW

SMILES | Ki [nM]
COc1ccc(CNC(=O)c2cc(-c3cc(C)cc(C)c3)nnc2-c2cnn(C)c2)cc1OC [Compound 1-5, N-(3,4-dimethoxybenzyl)-6-(3,5-dimethylphenyl)-3-(1-methyl-1H-pyrazol-4-yl)pyridazine-4-carboxamide] | 3.3
COc1ccc(CNC(=O)c2cc(-c3cc(C)cc(Cl)c3)nnc2N2CCOCC2)cc1OC [Compound 2-2, 6-(3-chloro-5-methylphenyl)-N-(3,4-dimethoxybenzyl)-3-morpholin-4-ylpyridazine-4-carboxamide] | 0.96
